Data from patent publication US8758816B2, “Compositions comprising azelastine and methods of use thereof” (priority 2004, dated 2014).

Test system: patients with seasonal allergic rhinitis (SAR)
Experiment: MP 428 study: individual symptom severity scores (runny nose, itchy nose, sneezing, congestion; 0-3 scale)
Assay type: in vivo, human
Settings: Intent-to-Treat Population
Method: A two-week, randomized, double-blind study, which evaluated the effects of the co-administration of ASTELIN® (azelastine hydrochloride (HCl)) and FLONASE® (fluticasone propionate) compared to either product alone in patients with seasonal allergic rhinitis (SAR) was conducted during the 2006 Texas mountain cedar season. After a 5-day placebo lead-in period, 151 patients with moderate-to-severe allergic rhinitis symptoms were randomized to either: (1) (49 total patients) ASTELIN® (azelastine hydrochloride (HCl)) plus placebo saline nasal spray 2 sprays per nostril, 15 minutes apart, twice daily (AM & PM); (2) (50 total patients) FLONASE® (fluticasone propionate) plus placebo saline nasal spray, 2 sprays per nostril, 15 minutes apart, once daily (AM) and two sessions of placebo saline nasal spray, 2 sprays per nostril, 15 minutes apart (PM); or (3) (52 total patients) the co-administration of ASTELIN® (azelastine hydrochloride (HCl)) 2 sprays per nostril plus FLONASE® (fluticasone propionate) 2 sprays per nostril (AM), 15 minutes apart, and ASTELIN® (azelastine hydrochloride (HCl)) 2 sprays per nostril plus placebo saline nasal spray, 15 minutes apart, (PM) for a 2-week double-blind treatment period.
The primary efficacy variable was the change from baseline in the Total Nasal Symptom Score (TNSS), which comprised sneezing, itchy nose, runny nose, and nasal congestion (individual symptoms scores were assigned a value between 0 and 3, where 0=no symptoms and 3=severe symptoms). This study was not statistically designed to assess the differences between ASTELIN® and FLONASE®.
The results of the clinical trial are summarized and presented in Appendix A hereinbelow and in FIGS. 1-6. […] FIGS. 2-5 show the mean improvement in severity score (0-3 scale) from baseline for the symptoms of runny nose, itchy nose, sneezing and congestion, respectively.

## CCC(=O)O[C@]1(C(=O)SCF)[C@H](C)C[C@H]2[C@@H]3C[C@H](F)C4=CC(=O)C=C[C@]4(C)[C@@]3(F)[C@@H](O)C[C@@]21C [Fluticasone, fluticasone propionate]
Day 5
  Percent Change from Baseline in AM and PM Combined Nasal Symptom Score: Congestion, LS Mean: −18.74%
  Percent Change from Baseline in AM and PM Combined Nasal Symptom Score: Congestion, Mean: −19.38%
  Percent Change from Baseline in AM and PM Combined Nasal Symptom Score: Congestion, Median: −14.29%
  Percent Change from Baseline in AM and PM Combined Nasal Symptom Score: Itchy Nose, LS Mean: −25.02%
  Percent Change from Baseline in AM and PM Combined Nasal Symptom Score: Itchy Nose, Mean: −24.64%
  Percent Change from Baseline in AM and PM Combined Nasal Symptom Score: Itchy Nose, Median: −25.00%
  Percent Change from Baseline in AM and PM Combined Nasal Symptom Score: Runny Nose, LS Mean: −22.06%
  Percent Change from Baseline in AM and PM Combined Nasal Symptom Score: Runny Nose, Mean: −22.31%
  Percent Change from Baseline in AM and PM Combined Nasal Symptom Score: Runny Nose, Median: −21.31%
  Percent Change from Baseline in AM and PM Combined Nasal Symptom Score: Sneezing, LS Mean: −35.40%
  Percent Change from Baseline in AM and PM Combined Nasal Symptom Score: Sneezing, Mean: −34.14%
  Percent Change from Baseline in AM and PM Combined Nasal Symptom Score: Sneezing, Median: −33.33%
Day 6
  Change from Baseline in AM and PM Combined Nasal Symptom Score: Congestion, LS Mean: −1.03
  Change from Baseline in AM and PM Combined Nasal Symptom Score: Congestion, Mean: −1.10
  Change from Baseline in AM and PM Combined Nasal Symptom Score: Congestion, Median: −0.83
  Change from Baseline in AM and PM Combined Nasal Symptom Score: Itchy Nose, LS Mean: −1.21
  Change from Baseline in AM and PM Combined Nasal Symptom Score: Itchy Nose, Mean: −1.21
  Change from Baseline in AM and PM Combined Nasal Symptom Score: Itchy Nose, Median: −1.00
  Change from Baseline in AM and PM Combined Nasal Symptom Score: Runny Nose, LS Mean: −1.35
  Change from Baseline in AM and PM Combined Nasal Symptom Score: Runny Nose, Mean: −1.35
  Change from Baseline in AM and PM Combined Nasal Symptom Score: Runny Nose, Median: −1.00
  Change from Baseline in AM and PM Combined Nasal Symptom Score: Sneezing, LS Mean: −1.51
  Change from Baseline in AM and PM Combined Nasal Symptom Score: Sneezing, Mean: −1.44
  Change from Baseline in AM and PM Combined Nasal Symptom Score: Sneezing, Median: −1.27
  Percent Change from Baseline in AM and PM Combined Nasal Symptom Score: Congestion, LS Mean: −19.32%
  Percent Change from Baseline in AM and PM Combined Nasal Symptom Score: Congestion, Mean: −20.16%
  Percent Change from Baseline in AM and PM Combined Nasal Symptom Score: Congestion, Median: −14.29%
  Percent Change from Baseline in AM and PM Combined Nasal Symptom Score: Itchy Nose, LS Mean: −27.12%
  Percent Change from Baseline in AM and PM Combined Nasal Symptom Score: Itchy Nose, Mean: −26.87%
  Percent Change from Baseline in AM and PM Combined Nasal Symptom Score: Itchy Nose, Median: −24.76%
  Percent Change from Baseline in AM and PM Combined Nasal Symptom Score: Runny Nose, LS Mean: −22.60%
  Percent Change from Baseline in AM and PM Combined Nasal Symptom Score: Runny Nose, Mean: −22.47%
  Percent Change from Baseline in AM and PM Combined Nasal Symptom Score: Runny Nose, Median: −18.64%
  Percent Change from Baseline in AM and PM Combined Nasal Symptom Score: Sneezing, LS Mean: −32.10%
  Percent Change from Baseline in AM and PM Combined Nasal Symptom Score: Sneezing, Mean: −31.22%
  Percent Change from Baseline in AM and PM Combined Nasal Symptom Score: Sneezing, Median: −32.77%
Day 7
  Change from Baseline in AM and PM Combined Nasal Symptom Score: Congestion, LS Mean: −1.03
  Change from Baseline in AM and PM Combined Nasal Symptom Score: Congestion, Mean: −1.10
  Change from Baseline in AM and PM Combined Nasal Symptom Score: Congestion, Median: −1.08
  Change from Baseline in AM and PM Combined Nasal Symptom Score: Itchy Nose, LS Mean: −1.30
  Change from Baseline in AM and PM Combined Nasal Symptom Score: Itchy Nose, Mean: −1.27
  Change from Baseline in AM and PM Combined Nasal Symptom Score: Itchy Nose, Median: −1.00
  Change from Baseline in AM and PM Combined Nasal Symptom Score: Runny Nose, LS Mean: −1.28
  Change from Baseline in AM and PM Combined Nasal Symptom Score: Runny Nose, Mean: −1.31
  Change from Baseline in AM and PM Combined Nasal Symptom Score: Runny Nose, Median: −1.45
  Change from Baseline in AM and PM Combined Nasal Symptom Score: Sneezing, LS Mean: −1.44
  Change from Baseline in AM and PM Combined Nasal Symptom Score: Sneezing, Mean: −1.33
  Change from Baseline in AM and PM Combined Nasal Symptom Score: Sneezing, Median: −1.20
  Percent Change from Baseline in AM and PM Combined Nasal Symptom Score: Congestion, LS Mean: −19.42%
  Percent Change from Baseline in AM and PM Combined Nasal Symptom Score: Congestion, Mean: −20.17%
  Percent Change from Baseline in AM and PM Combined Nasal Symptom Score: Congestion, Median: −21.31%
  Percent Change from Baseline in AM and PM Combined Nasal Symptom Score: Itchy Nose, LS Mean: −27.79%
  Percent Change from Baseline in AM and PM Combined Nasal Symptom Score: Itchy Nose, Mean: −26.92%
  Percent Change from Baseline in AM and PM Combined Nasal Symptom Score: Itchy Nose, Median: −23.55%
  Percent Change from Baseline in AM and PM Combined Nasal Symptom Score: Runny Nose, LS Mean: −18.01%
  Percent Change from Baseline in AM and PM Combined Nasal Symptom Score: Runny Nose, Mean: −18.63%
  Percent Change from Baseline in AM and PM Combined Nasal Symptom Score: Runny Nose, Median: −28.99%
  Percent Change from Baseline in AM and PM Combined Nasal Symptom Score: Sneezing, LS Mean: −31.86%
  Percent Change from Baseline in AM and PM Combined Nasal Symptom Score: Sneezing, Mean: −30.14%
  Percent Change from Baseline in AM and PM Combined Nasal Symptom Score: Sneezing, Median: −31.32%
Day 8
  Change from Baseline in AM and PM Combined Nasal Symptom Score: Congestion, LS Mean: −0.94
  Change from Baseline in AM and PM Combined Nasal Symptom Score: Congestion, Mean: −0.98
  Change from Baseline in AM and PM Combined Nasal Symptom Score: Congestion, Median: −0.83
  Change from Baseline in AM and PM Combined Nasal Symptom Score: Itchy Nose, LS Mean: −1.33
  Change from Baseline in AM and PM Combined Nasal Symptom Score: Itchy Nose, Mean: −1.29
  Change from Baseline in AM and PM Combined Nasal Symptom Score: Itchy Nose, Median: −1.15
  Change from Baseline in AM and PM Combined Nasal Symptom Score: Runny Nose, LS Mean: −0.95
  Change from Baseline in AM and PM Combined Nasal Symptom Score: Runny Nose, Mean: −0.98
  Change from Baseline in AM and PM Combined Nasal Symptom Score: Runny Nose, Median: −0.73
  Change from Baseline in AM and PM Combined Nasal Symptom Score: Sneezing, LS Mean: −1.41
  Change from Baseline in AM and PM Combined Nasal Symptom Score: Sneezing, Mean: −1.29
  Change from Baseline in AM and PM Combined Nasal Symptom Score: Sneezing, Median: −1.25
  Percent Change from Baseline in AM and PM Combined Nasal Symptom Score: Congestion, LS Mean: −17.55%
  Percent Change from Baseline in AM and PM Combined Nasal Symptom Score: Congestion, Mean: −17.88%
  Percent Change from Baseline in AM and PM Combined Nasal Symptom Score: Congestion, Median: −14.29%
  Percent Change from Baseline in AM and PM Combined Nasal Symptom Score: Itchy Nose, LS Mean: −28.16%
  Percent Change from Baseline in AM and PM Combined Nasal Symptom Score: Itchy Nose, Mean: −27.33%
  Percent Change from Baseline in AM and PM Combined Nasal Symptom Score: Itchy Nose, Median: −30.22%
  Percent Change from Baseline in AM and PM Combined Nasal Symptom Score: Runny Nose, LS Mean: −11.82%
  Percent Change from Baseline in AM and PM Combined Nasal Symptom Score: Runny Nose, Mean: −12.38%
  Percent Change from Baseline in AM and PM Combined Nasal Symptom Score: Runny Nose, Median: −14.29%
  Percent Change from Baseline in AM and PM Combined Nasal Symptom Score: Sneezing, LS Mean: −28.16%
  Percent Change from Baseline in AM and PM Combined Nasal Symptom Score: Sneezing, Mean: −26.04%
  Percent Change from Baseline in AM and PM Combined Nasal Symptom Score: Sneezing, Median: −31.03%
